According to article PMC8213057, “Targeting ALK2: An Open Science Approach to Developing Therapeutics for the Treatment of Diffuse Intrinsic Pontine Glioma” (Journal of Medicinal Chemistry, 2020):
Values joined by “and” are separate entries in the source; they are usually repeats but may differ in a detail not shown here. Equal entries are not always repeated.

Tests used:
FMS = molecular target: T1, FMS (Homo sapiens, UniProt P07333); experiment: 375-member kinase panel; assay type: biochemical; conditions: Run 1, Run 2; for % enzyme activity: 1 μM; for remaining activity at 1 µM: read-out: % enzyme activity, 1 μM
T1 construct: purchased Reaction Biology Corporation

GRK5 = GRK5 (Homo sapiens, UniProt P34947); conditions: 1 μM; Run 1, Run 2
IRAK4 = molecular target: T2, IRAK4 (Homo sapiens, UniProt Q9NWZ3); conditions: 1 μM; Run 1, Run 2
T2 sequence (Q9NWZ3 1-460): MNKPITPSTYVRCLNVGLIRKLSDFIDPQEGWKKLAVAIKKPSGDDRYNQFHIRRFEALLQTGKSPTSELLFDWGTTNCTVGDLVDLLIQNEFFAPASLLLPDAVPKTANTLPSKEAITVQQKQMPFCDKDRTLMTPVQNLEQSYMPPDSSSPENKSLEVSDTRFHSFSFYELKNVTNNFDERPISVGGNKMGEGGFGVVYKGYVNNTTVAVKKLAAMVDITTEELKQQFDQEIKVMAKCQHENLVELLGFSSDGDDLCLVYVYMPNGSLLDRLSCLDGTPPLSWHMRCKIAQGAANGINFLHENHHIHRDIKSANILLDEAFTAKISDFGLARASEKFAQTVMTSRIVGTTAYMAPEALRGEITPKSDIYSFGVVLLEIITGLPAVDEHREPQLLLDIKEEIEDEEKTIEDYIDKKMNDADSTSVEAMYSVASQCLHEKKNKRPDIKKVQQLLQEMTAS

MAPKAPK3 = MAPKAPK3 (Homo sapiens, UniProt Q16644); conditions: 1 μM; Run 1, Run 2
OSR1/OXSR1 = OSR1/OXSR1 (Homo sapiens, UniProt O95747); conditions: 1 μM; Run 1, Run 2
P38a/MAPK14 = P38a/MAPK14 (Homo sapiens, UniProt Q16539); conditions: 1 μM; Run 1, Run 2
PKCeta = PKCeta (Homo sapiens, UniProt P24723); conditions: 1 μM; Run 1, Run 2
PKG1b = molecular target: T3, PKG1b (Homo sapiens, UniProt Q13976); conditions: 1 μM; Run 1, Run 2
T3 sequence (Q13976 1-686 isoform Q13976-2): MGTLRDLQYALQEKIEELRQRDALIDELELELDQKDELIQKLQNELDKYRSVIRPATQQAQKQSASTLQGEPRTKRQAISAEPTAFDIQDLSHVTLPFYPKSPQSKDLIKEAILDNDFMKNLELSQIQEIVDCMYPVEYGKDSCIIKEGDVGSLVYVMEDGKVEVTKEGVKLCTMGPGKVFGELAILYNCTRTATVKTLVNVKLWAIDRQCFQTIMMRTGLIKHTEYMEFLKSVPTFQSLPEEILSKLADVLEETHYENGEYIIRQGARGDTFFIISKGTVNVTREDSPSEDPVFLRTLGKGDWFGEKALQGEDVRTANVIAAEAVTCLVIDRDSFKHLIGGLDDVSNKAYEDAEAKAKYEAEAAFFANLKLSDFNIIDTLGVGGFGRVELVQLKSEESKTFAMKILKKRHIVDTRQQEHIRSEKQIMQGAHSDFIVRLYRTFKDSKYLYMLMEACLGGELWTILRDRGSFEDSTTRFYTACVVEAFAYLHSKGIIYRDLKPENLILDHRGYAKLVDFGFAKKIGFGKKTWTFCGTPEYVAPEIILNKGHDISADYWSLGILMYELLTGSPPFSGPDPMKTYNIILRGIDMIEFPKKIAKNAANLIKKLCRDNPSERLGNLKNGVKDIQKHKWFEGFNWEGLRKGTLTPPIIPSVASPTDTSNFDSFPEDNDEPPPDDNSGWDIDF

RSK4 = RSK4 (Homo sapiens, UniProt Q9UK32); conditions: 1 μM; Run 1, Run 2
STK21/CIT = STK21/CIT (Homo sapiens, UniProt O14578); conditions: 1 μM; Run 1, Run 2
TESK2 = TESK2 (Homo sapiens, UniProt Q96S53); conditions: 1 μM; Run 1, Run 2
TRKB = TRKB (Homo sapiens, UniProt Q16620); conditions: 1 μM; Run 1, Run 2
GLK/MAP4K3 = molecular target: T4, GLK/MAP4K3 (Homo sapiens, UniProt Q8IVH8); experiment: biochemical; conditions: read-out: % enzyme activity, 1 μM; Run 1, Run 2
T4 sequence (Q8IVH8 1-894): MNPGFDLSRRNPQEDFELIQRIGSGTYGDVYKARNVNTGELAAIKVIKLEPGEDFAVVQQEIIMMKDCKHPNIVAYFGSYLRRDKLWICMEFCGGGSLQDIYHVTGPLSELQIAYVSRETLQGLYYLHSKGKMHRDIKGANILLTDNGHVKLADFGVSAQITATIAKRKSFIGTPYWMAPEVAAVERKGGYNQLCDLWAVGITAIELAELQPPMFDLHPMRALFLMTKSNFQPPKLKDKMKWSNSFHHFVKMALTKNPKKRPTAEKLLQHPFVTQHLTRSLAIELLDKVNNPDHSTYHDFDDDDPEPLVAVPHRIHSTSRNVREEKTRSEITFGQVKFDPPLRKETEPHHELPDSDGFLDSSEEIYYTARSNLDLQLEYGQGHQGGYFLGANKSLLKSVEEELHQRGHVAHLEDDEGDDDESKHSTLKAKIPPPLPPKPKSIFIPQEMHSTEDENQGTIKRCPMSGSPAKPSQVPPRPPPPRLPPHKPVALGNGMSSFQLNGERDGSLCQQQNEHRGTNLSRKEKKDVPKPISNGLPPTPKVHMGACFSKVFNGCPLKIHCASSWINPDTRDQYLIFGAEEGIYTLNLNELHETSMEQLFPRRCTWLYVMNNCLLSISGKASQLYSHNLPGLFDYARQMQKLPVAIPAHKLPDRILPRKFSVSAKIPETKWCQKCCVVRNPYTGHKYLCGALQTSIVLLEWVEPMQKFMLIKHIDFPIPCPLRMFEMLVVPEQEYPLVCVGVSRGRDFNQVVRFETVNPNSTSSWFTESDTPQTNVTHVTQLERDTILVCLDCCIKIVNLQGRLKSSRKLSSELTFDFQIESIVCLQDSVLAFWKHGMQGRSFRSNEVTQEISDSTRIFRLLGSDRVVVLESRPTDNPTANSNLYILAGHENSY

PAK4 = PAK4 (Homo sapiens, UniProt O96013); experiment: biochemical; conditions: read-out: % enzyme activity, 1 μM; Run 1, Run 2
PKN3/PRK3 = PKN3/PRK3 (Homo sapiens, UniProt Q6P5Z2); experiment: biochemical; conditions: read-out: % enzyme activity, 1 μM; Run 1, Run 2
PKN3/PRK3, sequence (Q6P5Z2 whole entry): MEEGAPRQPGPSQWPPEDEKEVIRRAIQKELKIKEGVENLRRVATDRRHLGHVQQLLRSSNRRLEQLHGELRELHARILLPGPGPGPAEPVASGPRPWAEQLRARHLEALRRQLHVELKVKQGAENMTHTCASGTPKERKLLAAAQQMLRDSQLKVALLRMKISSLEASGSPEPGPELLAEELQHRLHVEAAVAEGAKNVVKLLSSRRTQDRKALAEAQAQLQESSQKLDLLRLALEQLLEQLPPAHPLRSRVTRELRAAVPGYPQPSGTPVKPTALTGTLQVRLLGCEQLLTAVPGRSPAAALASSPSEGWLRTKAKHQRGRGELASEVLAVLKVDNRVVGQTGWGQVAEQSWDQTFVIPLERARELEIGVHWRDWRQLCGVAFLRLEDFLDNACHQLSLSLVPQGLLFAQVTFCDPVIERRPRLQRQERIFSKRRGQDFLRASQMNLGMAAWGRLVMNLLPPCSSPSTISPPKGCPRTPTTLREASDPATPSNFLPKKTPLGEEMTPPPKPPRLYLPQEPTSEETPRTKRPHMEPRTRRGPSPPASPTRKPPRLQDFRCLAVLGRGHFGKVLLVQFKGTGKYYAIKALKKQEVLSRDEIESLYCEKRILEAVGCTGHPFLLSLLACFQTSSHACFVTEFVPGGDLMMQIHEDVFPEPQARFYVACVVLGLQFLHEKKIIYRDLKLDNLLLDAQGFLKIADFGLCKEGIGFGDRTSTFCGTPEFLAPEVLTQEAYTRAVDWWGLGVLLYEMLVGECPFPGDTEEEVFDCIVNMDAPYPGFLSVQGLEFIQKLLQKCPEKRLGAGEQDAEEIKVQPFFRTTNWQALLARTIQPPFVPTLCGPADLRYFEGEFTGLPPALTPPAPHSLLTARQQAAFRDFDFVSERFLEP

T1 sequence (P07333 20-972): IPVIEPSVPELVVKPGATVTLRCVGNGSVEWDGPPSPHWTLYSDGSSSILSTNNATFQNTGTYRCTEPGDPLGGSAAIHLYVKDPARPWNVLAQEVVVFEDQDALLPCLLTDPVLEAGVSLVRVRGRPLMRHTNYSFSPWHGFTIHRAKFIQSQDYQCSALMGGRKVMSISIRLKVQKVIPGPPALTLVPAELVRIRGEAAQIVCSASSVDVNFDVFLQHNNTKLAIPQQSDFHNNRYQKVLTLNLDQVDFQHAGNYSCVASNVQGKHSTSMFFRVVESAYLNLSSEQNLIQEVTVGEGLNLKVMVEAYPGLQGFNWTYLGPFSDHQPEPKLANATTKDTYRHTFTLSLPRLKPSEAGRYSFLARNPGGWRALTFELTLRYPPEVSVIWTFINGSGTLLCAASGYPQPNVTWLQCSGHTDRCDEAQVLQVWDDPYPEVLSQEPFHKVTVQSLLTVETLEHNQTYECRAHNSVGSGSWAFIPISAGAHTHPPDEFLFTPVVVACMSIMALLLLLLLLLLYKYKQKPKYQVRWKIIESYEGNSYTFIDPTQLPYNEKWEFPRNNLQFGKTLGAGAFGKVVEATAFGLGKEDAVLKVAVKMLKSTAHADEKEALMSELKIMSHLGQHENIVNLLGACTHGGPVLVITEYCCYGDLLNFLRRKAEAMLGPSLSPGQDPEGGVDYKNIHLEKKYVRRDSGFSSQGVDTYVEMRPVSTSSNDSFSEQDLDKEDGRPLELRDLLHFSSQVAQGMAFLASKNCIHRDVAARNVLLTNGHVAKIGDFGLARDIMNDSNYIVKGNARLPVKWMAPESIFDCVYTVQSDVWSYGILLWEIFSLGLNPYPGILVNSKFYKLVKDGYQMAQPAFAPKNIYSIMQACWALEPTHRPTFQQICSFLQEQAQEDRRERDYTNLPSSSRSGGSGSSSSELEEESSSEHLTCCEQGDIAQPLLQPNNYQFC
GRK5, sequence (P34947 whole entry): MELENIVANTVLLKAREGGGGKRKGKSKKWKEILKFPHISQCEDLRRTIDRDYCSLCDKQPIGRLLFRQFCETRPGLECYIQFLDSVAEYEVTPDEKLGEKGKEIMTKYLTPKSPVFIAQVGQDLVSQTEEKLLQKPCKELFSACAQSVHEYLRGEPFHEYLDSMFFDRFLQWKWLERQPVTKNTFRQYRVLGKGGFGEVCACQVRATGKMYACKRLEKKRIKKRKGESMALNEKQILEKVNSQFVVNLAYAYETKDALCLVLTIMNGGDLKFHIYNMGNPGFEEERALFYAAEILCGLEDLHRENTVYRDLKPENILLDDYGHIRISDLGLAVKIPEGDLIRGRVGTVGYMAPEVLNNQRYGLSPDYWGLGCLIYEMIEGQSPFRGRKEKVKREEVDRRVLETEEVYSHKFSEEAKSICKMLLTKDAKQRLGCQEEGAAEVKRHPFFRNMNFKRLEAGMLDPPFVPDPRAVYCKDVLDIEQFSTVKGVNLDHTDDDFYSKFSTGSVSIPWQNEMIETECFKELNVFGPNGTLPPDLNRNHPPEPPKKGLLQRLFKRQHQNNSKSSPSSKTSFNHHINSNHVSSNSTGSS
OSR1/OXSR1, sequence (O95747 whole entry): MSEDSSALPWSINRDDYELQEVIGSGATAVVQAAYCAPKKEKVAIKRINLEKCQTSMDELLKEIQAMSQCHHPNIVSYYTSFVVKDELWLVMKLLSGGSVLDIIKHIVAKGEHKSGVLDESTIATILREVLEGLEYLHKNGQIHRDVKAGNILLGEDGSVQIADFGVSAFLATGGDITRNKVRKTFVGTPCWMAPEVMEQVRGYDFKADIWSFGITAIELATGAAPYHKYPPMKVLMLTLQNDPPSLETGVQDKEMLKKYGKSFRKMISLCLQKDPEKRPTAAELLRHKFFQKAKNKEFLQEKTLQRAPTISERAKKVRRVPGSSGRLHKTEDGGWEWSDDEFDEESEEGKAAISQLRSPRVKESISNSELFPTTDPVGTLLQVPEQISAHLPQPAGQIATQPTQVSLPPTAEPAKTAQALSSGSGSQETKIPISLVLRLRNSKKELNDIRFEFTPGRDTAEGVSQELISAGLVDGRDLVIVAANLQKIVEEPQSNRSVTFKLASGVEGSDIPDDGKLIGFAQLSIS
PKCeta, sequence (P24723 whole entry): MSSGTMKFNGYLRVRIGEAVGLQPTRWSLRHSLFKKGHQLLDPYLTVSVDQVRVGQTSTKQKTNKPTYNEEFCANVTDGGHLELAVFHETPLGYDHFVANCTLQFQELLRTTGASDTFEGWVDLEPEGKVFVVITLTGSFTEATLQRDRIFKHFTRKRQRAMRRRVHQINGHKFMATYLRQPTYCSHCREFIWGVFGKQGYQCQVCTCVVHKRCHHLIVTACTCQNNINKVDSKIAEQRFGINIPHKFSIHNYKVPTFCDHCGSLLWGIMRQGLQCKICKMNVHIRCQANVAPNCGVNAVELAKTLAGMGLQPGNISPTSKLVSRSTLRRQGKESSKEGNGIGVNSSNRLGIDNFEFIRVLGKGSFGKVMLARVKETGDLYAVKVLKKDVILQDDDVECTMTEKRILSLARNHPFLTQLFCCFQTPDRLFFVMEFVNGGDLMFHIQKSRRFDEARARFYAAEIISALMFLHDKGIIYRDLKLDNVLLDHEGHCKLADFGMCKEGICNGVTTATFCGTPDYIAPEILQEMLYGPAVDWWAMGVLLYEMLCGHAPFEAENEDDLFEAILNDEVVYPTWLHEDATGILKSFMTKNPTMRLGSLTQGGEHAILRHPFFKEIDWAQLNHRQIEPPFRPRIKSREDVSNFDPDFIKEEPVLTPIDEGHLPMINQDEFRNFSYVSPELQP
RSK4, sequence (Q9UK32 whole entry): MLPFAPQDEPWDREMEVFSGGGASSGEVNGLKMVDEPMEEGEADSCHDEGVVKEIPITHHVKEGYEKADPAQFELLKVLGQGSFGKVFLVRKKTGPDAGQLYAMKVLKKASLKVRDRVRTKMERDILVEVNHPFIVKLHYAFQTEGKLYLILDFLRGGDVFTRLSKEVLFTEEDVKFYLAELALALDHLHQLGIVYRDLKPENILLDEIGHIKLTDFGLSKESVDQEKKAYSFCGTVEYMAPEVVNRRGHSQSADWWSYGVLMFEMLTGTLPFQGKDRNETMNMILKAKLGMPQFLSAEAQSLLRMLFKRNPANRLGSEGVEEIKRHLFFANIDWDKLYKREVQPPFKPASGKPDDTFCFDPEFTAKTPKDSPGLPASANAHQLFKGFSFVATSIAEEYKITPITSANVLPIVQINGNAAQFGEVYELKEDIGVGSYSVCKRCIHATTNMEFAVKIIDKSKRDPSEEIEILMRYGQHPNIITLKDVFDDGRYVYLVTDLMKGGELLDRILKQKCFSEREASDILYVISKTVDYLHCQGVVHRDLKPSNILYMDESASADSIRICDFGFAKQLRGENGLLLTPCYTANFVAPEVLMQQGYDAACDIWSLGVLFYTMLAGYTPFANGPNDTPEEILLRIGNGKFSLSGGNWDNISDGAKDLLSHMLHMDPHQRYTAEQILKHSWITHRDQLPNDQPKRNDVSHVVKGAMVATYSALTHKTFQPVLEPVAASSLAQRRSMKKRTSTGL
TESK2, sequence (Q96S53 whole entry): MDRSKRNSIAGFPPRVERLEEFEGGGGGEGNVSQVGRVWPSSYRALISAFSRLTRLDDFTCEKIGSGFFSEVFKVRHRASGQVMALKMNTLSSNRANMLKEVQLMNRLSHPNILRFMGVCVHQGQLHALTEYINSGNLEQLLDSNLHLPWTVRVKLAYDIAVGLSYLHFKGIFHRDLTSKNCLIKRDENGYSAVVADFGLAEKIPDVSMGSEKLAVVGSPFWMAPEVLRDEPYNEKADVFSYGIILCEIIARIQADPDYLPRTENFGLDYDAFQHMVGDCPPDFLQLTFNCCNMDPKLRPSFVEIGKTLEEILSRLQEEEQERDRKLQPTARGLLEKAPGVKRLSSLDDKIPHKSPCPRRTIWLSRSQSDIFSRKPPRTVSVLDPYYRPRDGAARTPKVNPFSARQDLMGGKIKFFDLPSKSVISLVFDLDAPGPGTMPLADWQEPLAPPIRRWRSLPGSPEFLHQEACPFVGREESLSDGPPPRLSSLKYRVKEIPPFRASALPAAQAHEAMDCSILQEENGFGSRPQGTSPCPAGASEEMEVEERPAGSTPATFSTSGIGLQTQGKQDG

SMILES | % enzyme activity at 1 μM (TGFBR2) | % enzyme activity (FMS) | remaining activity at 1 µM (FMS) | % enzyme activity (GRK5) | % enzyme activity (IRAK4) | % enzyme activity (MAPKAPK3) | % enzyme activity (OSR1/OXSR1) | % enzyme activity (P38a/MAPK14) | % enzyme activity (PKCeta) | % enzyme activity (PKG1b) | % enzyme activity (RSK4) | % enzyme activity (STK21/CIT) | % enzyme activity (TESK2) | % enzyme activity (TRKB) | remaining activity at 1 µM (GLK/MAP4K3) | remaining activity at 1 µM (PAK4) | remaining activity at 1 µM (PKN3/PRK3)
COc1cc(-c2cncc(-c3ccc(N4C[C@@H](C)N(C)[C@@H](C)C4)cc3)c2C)cc(F)c1C(N)=O [Compound 26c, 2-Fluoro-6-methoxy-4-(4-methyl-5-(4-((3R,5S)-3,4,5-trimethylpiperazin-1-yl)phenyl)pyridin-3-yl)benzamide] | 106% and 105% | 78.83% | 79.5% | 91.62% | 88.61% | 96.39% | 94.75% | 96.02% | 98.10% | 96.31% | 94.61% | 84.97% | 92.03% | 98.44% | 90.3% | 99.9% | 98.4%
COc1cc(-c2cncc(-c3ccc(N4CCN(C)CC4)cc3)c2C)cc(F)c1C(N)=O [Compound 26a, 2-Fluoro-6-methoxy-4-(4-methyl-5-(4-(4-methylpiperazin-1-yl)phenyl)pyridin-3-yl)benzamide] | 103% and 97.4% | 75.66% | 82.2% | 99.06% | 82.71% | 99.20% | 93.34% | 91.67% | 93.90% | 98.83% | 95.64% | 84.42% | 93.89% | 99.94% | 88.4% | 98.5% | 95%
